# Assay results as given in ChEMBL document CHEMBL5715937, “In vitro activity of Bcr-Abl inhibitors AMN107 and BMS-354825 against clinically relevant imatinib-resistant Abl kinase domain mutants” (Cancer Res, 2005).
# Activity calls are given as the source filed them. The calls are words filed in the database; no cut-off is given here.
# Columns and labels:
# [1] = Inhibition of BCR-ABL M244V mutant (unknown origin) expressed in mouse BaF3 cells assessed as inhibition of cell growth incubated for 72 hrs by […] CellTiter96 viability analysis; conditions: for IC50: BaF3, 72 h
# [2] = Inhibition of BCR-ABL G250E mutant (unknown origin) expressed in mouse BaF3 cells assessed as inhibition of cell growth incubated for 72 hrs by […] CellTiter96 viability analysis; conditions: for IC50: BaF3, 72 h
# [3] = Inhibition of BCR-ABL Q252H mutant (unknown origin) expressed in mouse BaF3 cells assessed as inhibition of cell growth incubated for 72 hrs by […] CellTiter96 viability analysis; conditions: for IC50: BaF3, 72 h
# [4] = Inhibition of BCR-ABL Y253F mutant (unknown origin) expressed in mouse BaF3 cells assessed as inhibition of cell growth incubated for 72 hrs by […] CellTiter96 viability analysis; conditions: for IC50: BaF3, 72 h
# [5] = Inhibition of BCR-ABL Y253H mutant (unknown origin) expressed in mouse BaF3 cells assessed as inhibition of cell growth incubated for 72 hrs by […] CellTiter96 viability analysis; conditions: for IC50: BaF3, 72 h
# [6] = Inhibition of BCR-ABL E255K mutant (unknown origin) expressed in mouse BaF3 cells assessed as inhibition of cell growth incubated for 72 hrs by […] CellTiter96 viability analysis; conditions: for IC50: BaF3, 72 h
# [7] = Inhibition of BCR-ABL E255V mutant (unknown origin) expressed in mouse BaF3 cells assessed as inhibition of cell growth incubated for 72 hrs by […] CellTiter96 viability analysis; conditions: for IC50: BaF3, 72 h
# [8] = Inhibition of BCR-ABL F311L mutant (unknown origin) expressed in mouse BaF3 cells assessed as inhibition of cell growth incubated for 72 hrs by […] CellTiter96 viability analysis; conditions: for IC50: BaF3, 72 h
# [9] = Inhibition of BCR-ABL F317L mutant (unknown origin) expressed in mouse BaF3 cells assessed as inhibition of cell growth incubated for 72 hrs by […] CellTiter96 viability analysis; conditions: for IC50: BaF3, 72 h
# [10] = Inhibition of BCR-ABL M351T mutant (unknown origin) expressed in mouse BaF3 cells assessed as inhibition of cell growth incubated for 72 hrs by […] CellTiter96 viability analysis; conditions: for IC50: BaF3, 72 h
# [11] = Inhibition of BCR-ABL F359V mutant (unknown origin) expressed in mouse BaF3 cells assessed as inhibition of cell growth incubated for 72 hrs by […] CellTiter96 viability analysis; conditions: for IC50: BaF3, 72 h
# [12] = Inhibition of BCR-ABL V379l mutant (unknown origin) expressed in mouse BaF3 cells assessed as inhibition of cell growth incubated for 72 hrs by […] CellTiter96 viability analysis; conditions: for IC50: BaF3, 72 h
# [13] = Inhibition of BCR-ABL L387M mutant (unknown origin) expressed in mouse BaF3 cells assessed as inhibition of cell growth incubated for 72 hrs by […] CellTiter96 viability analysis; conditions: for IC50: BaF3, 72 h
# [14] = Inhibition of BCR-ABL H396P mutant (unknown origin) expressed in mouse BaF3 cells assessed as inhibition of cell growth incubated for 72 hrs by […] CellTiter96 viability analysis; conditions: for IC50: BaF3, 72 h
# [15] = Inhibition of BCR-ABL H396R mutant (unknown origin) expressed in mouse BaF3 cells assessed as inhibition of cell growth incubated for 72 hrs by […] CellTiter96 viability analysis; conditions: for IC50: BaF3, 72 h
# [16] = Cytotoxicity against mouse BaF3 cells assessed as reduction in cell proliferation incubated for 72 hrs by […] CellTiter96 viability analysis; type: toxicity
# [17] = cells; conditions: Mus musculus, BaF3, 72 h
# [18] = cells; conditions: Mus musculus, BaF3, 3 h
# [19] = cells; conditions: Mus musculus, BaF3, 3 h; remark: listed apart in the source
# [20] = cells; conditions: Mus musculus, BaF3, 3 h; remark: listed apart in the source
# [21] = cells; conditions: Mus musculus, BaF3, 3 h; remark: listed apart in the source
# [22] = cells; conditions: Mus musculus, BaF3, 3 h; remark: listed apart in the source
# [23] = cells; conditions: Mus musculus, BaF3, 3 h; remark: listed apart in the source
# [24] = cells; conditions: Mus musculus, BaF3, 3 h; remark: listed apart in the source
# [25] = cells; conditions: Mus musculus, BaF3, 3 h; remark: listed apart in the source
# [26] = cells; conditions: Mus musculus, BaF3, 3 h; remark: listed apart in the source
# [27] = cells; conditions: Mus musculus, BaF3, 3 h; remark: listed apart in the source
# [28] = cells; conditions: Mus musculus, BaF3, 3 h; remark: listed apart in the source
# [29] = cells; conditions: Mus musculus, BaF3, 3 h; remark: listed apart in the source
# [30] = Inhibition of BCR-ABL F311L mutant (unknown origin) expressed in mouse BaF3 cells assessed as inhibition of tyrosine phosphorylation incubated for 3 hrs by immunoblotting analysis; type: cell-based; conditions: BaF3, 3 h
# [31] = Inhibition of BCR-ABL phosphorylation in mouse BaF3 cells incubated for 3 hrs by immunoblotting analysis; type: functional, cell-based
# [32] = Inhibition of BCR-ABL V379l mutant (unknown origin) expressed in mouse BaF3 cells assessed as inhibition of tyrosine phosphorylation incubated for 3 hrs by immunoblotting analysis; type: cell-based; conditions: BaF3, 3 h
# [33] = Inhibition of BCR-ABL L387M mutant (unknown origin) expressed in mouse BaF3 cells assessed as inhibition of tyrosine phosphorylation incubated for 3 hrs by immunoblotting analysis; type: cell-based; conditions: BaF3, 3 h
# [34] = Inhibition of BCR-ABL H396P mutant (unknown origin) expressed in mouse BaF3 cells assessed as inhibition of tyrosine phosphorylation incubated for 3 hrs by immunoblotting analysis; type: cell-based; conditions: BaF3, 3 h
# [35] = test system: BaF3; experiment: Induction of apoptosis in mouse BaF3 cells expressing Bcr-Abl T315I mutant at 300 to 1500 nM incubated for 72 hrs by Annexin V-phycoerythrin and 7-amino-actinomycin D staining based PCA instrument analysis relative to control; type: functional, cell-based; conditions: dose 300-1500 nM
# [36] = BaF3, time 72 hrs, condition chronic myelogenous leukemia
compound,measurement,setting,value
Cc1nc(Nc2ncc(C(=O)Nc3c(C)cccc3Cl)s2)cc(N2CCN(CCO)CC2)n1 [DASATINIB ANHYDROUS],IC50,[1],1.3 nM
same,IC90,[1]; [36],1.8 nM
same,IC50,[2],1.8 nM
same,IC90,[2]; [36],3 nM
same,IC50,[3],3.4 nM
same,IC90,[3]; [36],11.2 nM
same,IC50,[4],1.4 nM
same,IC90,[4]; [36],3 nM
same,IC50,[5],1.3 nM
same,IC90,[5]; [36],3 nM
same,IC50,[6],5.6 nM
same,IC90,[6]; [36],12.8 nM
same,IC50,[7],11 nM
same,IC90,[7]; [36],27 nM
same,IC50,[8],1.3 nM
same,IC90,[8]; [36],2.8 nM
same,IC50,[9],7.4 nM
same,IC90,[9]; [36],15 nM
same,IC50,[10],1.1 nM
same,IC90,[10]; [36],3 nM
same,IC50,[11],2.2 nM
same,IC90,[11]; [36],4.8 nM
same,IC50,[12],0.8 nM
same,IC90,[12]; [36],1.6 nM
same,IC50,[13],2 nM
same,IC90,[13]; [36],4 nM
same,IC50,[14],0.6 nM
same,IC90,[14]; [36],1.2 nM
same,IC50,[15],1.3 nM
same,IC90,[15]; [36],2.7 nM
same,IC50 at 72 h,[16],> 200 nM
same,IC50,[17],> 200 nM
same,IC50,[18],> 1000 nM
same,IC50,[19],< 10 nM
same,IC50,[20],10 nM
same,IC50,[21],< 10 nM
same,IC50,[22],< 10 nM
same,IC50,[23],< 10 nM
same,IC50,[24],10 nM
same,IC50,[25],< 10 nM
same,IC50,[26],< 10 nM
same,IC50,[27],< 10 nM
same,IC50,[28],10 nM
same,IC50,[29],< 10 nM
Cc1ccc(NC(=O)c2ccc(CN3CCN(C)CC3)cc2)cc1Nc1nccc(-c2cccnc2)n1 [IMATINIB],IC50,[1],2000 nM
same,IC50,[2],1350 nM
same,IC50,[3],1320 nM
same,IC50,[4],3480 nM
same,IC50,[5],> 6400 nM
same,IC50,[6],5200 nM
same,IC50,[7],> 6400 nM
same,IC50,[8],480 nM
same,IC50,[9],1050 nM
same,IC50,[10],880 nM
same,IC50,[11],1820 nM
same,IC50,[12],1630 nM
same,IC50,[13],1000 nM
same,IC50,[14],850 nM
same,IC50,[15],1750 nM
same,IC50 at 72 h,[16],> 6400 nM
same,IC50,[30],600 nM
same,IC50,[31],Not Active
same,IC50,[32],800 nM
same,IC50,[33],2700 nM
same,IC50,[34],2700 nM
same,Activity,[35],inactive
same,IC50,[17],> 6400 nM
same,IC50,[18],> 5000 nM
same,IC50,[19],500 nM
same,IC50,[20],1000 nM
same,IC50,[21],1500 nM
same,IC50,[22],4200 nM
same,IC50,[23],> 5000 nM
same,IC50,[24],5000 nM
same,IC50,[25],> 5000 nM
same,IC50,[26],400 nM
same,IC50,[27],500 nM
same,IC50,[28],3100 nM
same,IC50,[29],1000 nM
